Experimental data as given in paper PMC6804212, “Chain Substituted Cannabilactones with Selectivity for the CB2 Cannabinoid Receptor” (Molecules, 2019).
Where two headings read alike, the source gives them in different places.

Assays:
rat CB1 receptor = target: T1, rat CB1 receptor (Rattus norvegicus, UniProt P20272); experiment: Radioligand competition binding, [3H]CP-55,940, rat brain membranes
T1 construct: membrane preparations from rat brain; from tissue; host or cells: rat brain membranes
T1 sequence (P20272 whole entry): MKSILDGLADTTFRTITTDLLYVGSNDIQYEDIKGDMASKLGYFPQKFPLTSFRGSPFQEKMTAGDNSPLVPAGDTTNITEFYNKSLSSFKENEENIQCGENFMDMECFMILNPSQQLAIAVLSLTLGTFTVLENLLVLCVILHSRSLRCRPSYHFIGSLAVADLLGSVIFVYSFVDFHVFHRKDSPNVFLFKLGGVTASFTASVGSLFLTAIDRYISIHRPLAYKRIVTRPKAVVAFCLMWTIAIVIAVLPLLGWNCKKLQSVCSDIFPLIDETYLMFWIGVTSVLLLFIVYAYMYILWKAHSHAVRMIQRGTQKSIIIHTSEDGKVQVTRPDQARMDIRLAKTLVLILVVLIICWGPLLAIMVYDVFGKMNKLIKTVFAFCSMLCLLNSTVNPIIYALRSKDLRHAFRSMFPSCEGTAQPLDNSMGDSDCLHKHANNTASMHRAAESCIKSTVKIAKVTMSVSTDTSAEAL
Protocol: (§1) Inhibition constant values (Ki) from the respective competition binding curves are listed in Table 1 in which our first generation cannabilactone analog AM1714 is included for comparison. The current data of AM1714 for mCB2 are slightly different when compared to those we published earlier. This is because the compound was first assayed in a different mCB2 receptor preparation, e.g., mouse spleen membrane.
(§2) Results from the competition assays were analyzed using nonlinear regression to determine the IC50 values for the ligand [59]; Ki values were calculated from the IC50 (Prism by GraphPad Software, Inc.). Each experiment was performed in triplicate and Ki values determined from three independent experiments and are expressed as the mean of the three values.

mouse CB2 receptor = target: T2, mouse CB2 receptor (Mus musculus, UniProt P47936); experiment: Radioligand competition binding, [3H]CP-55,940, membranes from HEK293 cells expressing mouse CB2; settings: for rCB1/mCB2: ratio of Ki values, rCB1 over mCB2; for selectivity for mCB2 over rCB1: from Ki values
T2 construct: expressed in transfected cells; host or cells: HEK293
T2 sequence (P47936 whole entry): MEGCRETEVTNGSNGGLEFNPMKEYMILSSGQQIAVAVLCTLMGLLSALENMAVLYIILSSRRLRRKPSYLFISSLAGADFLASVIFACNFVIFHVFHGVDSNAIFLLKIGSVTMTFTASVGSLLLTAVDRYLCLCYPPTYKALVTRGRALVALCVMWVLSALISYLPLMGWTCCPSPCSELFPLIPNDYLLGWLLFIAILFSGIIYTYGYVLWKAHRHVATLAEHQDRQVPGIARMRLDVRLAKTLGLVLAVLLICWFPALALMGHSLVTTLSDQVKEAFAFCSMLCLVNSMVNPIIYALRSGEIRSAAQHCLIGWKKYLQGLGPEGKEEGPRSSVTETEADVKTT
Protocol: as §1, §2

hCB2 receptor [1] = target: T3, hCB2 receptor (Homo sapiens, UniProt P34972); experiment: cAMP assay: decrease in forskolin-stimulated cAMP in HEK293 cells stably expressing hCB2; format: cell-based; set-up: expressed in transfected cells; settings: for classification at hCB2: forskolin-stimulated cAMP assay; for E(max): maximum inhibition of forskolin stimulated cAMP levels, as percentage of CP-55,940 response at 500 nM
T3 sequence (P34972 whole entry): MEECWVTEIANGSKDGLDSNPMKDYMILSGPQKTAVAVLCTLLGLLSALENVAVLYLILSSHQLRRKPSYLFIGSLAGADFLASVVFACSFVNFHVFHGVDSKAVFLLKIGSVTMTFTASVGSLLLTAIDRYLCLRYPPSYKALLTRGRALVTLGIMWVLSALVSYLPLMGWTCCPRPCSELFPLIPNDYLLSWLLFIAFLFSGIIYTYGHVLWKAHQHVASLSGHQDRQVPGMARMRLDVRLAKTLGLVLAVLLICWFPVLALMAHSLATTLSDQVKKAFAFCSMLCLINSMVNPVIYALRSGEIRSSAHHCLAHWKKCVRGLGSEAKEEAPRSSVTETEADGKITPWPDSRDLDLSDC
Protocol: HEK293 cells stably expressing hCB2 receptors were used for the studies. The cAMP assay was carried out using PerkinElmer’s Lance ultra cAMP kit following the protocol of the manufacturer. Briefly, the assays were carried out in 384-well plates using 1000–1500 cells/well. The cells were harvested with non-enzymatic cell dissociation reagent Versene, washed once with HBSS and resuspended in the stimulation buffer. The various concentrations of the test compound (5 μL) in forskolin (2 μM final concentration) containing stimulation buffer were added to the plate followed by the cell suspension (5 μL). Cells were stimulated for 30 min at room temperature. Eu-cAMP tracer working solution (5 μL) and Ulight-anti-cAMP working solution (5 μL) were then added to the plate and incubated at room temperature for 60 min. The data were collected on a Perkin-Elmer Envision instrument. The EC50 values were determined by non-linear regression analysis using GraphPad Prism software (GraphPad Software, Inc., San Diego, CA, USA).

hCB2 receptor [2] = target: T3, hCB2 receptor; experiment: Radioligand competition binding, [3H]CP-55,940, membranes from HEK293 cells expressing human CB2; set-up: expressed in transfected cells; host or cells: HEK293; settings: for greater affinity for mCB2 than for hCB2: from Ki values; for hCB2/mCB2 / rCB1/hCB2: ratio of Ki values; for hCB2/mCB2: hCB2 over mCB2; for rCB1/hCB2: rCB1 over hCB2; for Ki: read-out: Ki hCB2
Protocol: Indeed, in our original work on the cannabilactone class of compounds, we have identified species-specific variation in CB2 affinity. For this reason, the key compounds were also assayed using membranes from HEK293 cells expressing human CB2 (hCB2).
as §2

Row | SMILES | Ki (rat CB1 receptor; read-out: Ki rCB1) [nM] | melting point [°C] | Ki (mouse CB2 receptor) [nM] | rCB1/mCB2 (mouse CB2 receptor) | further results
1 | CC(C)N(C(=O)c1ccc(O)cc1-c1c(O)cc(C2(CCCCCBr)CCCC2)cc1O)C(C)C [Compound 23b, 4′-[1-(5-Bromopentyl)cyclopentyl]-2′,5,6′-trihydroxy-N,N-diisopropyl-[1,1′-biphenyl]-2-carboxamide] | 745 ± 215 | 190 to 192 | 17.4 ± 4.8 | 42.8 | –
2 | CCCCCCC(C)(C)c1cc(O)c2c(c1)oc(=O)c1ccc(OC)cc12 [Compound 1a] | – | – | – | – | EC50 (hCB2 receptor [1]): 10.5 ± 2.5 nM; classification at hCB2 (hCB2 receptor [1]): agonist; E(max) (hCB2 receptor [1]): 73%
3 | CCCCCCC(C)(C)c1cc(O)c2c(c1)oc(=O)c1ccc(O)cc12 [Compound 1b, reference compound] | – | – | – | 21.3 | Ki (rat CB1 receptor): 100 ± 24 nM; selectivity for mCB2 over rCB1 (mouse CB2 receptor): 21- to 32 fold; Ki (mouse CB2 receptor; read-out: Ki mCB2): 4.7 ± 1.8 nM; greater affinity for mCB2 than for hCB2 (hCB2 receptor [2]): 18 fold; hCB2/mCB2 (hCB2 receptor [2]): 17.7; rCB1/hCB2 (hCB2 receptor [2]): 1.2; Ki (hCB2 receptor [2]): 83.6 ± 23.2 nM; EC50 (hCB2 receptor [1]): 36.9 ± 6.8 nM; classification at hCB2 (hCB2 receptor [1]): agonist; E(max) (hCB2 receptor [1]): 77%
4 | CCCCCCC1(c2cc(O)c3c(c2)oc(=O)c2ccc(O)cc23)CCCC1 [Compound 3d, 3-(1-Hexyl-cyclopentyl]-1,9-dihydroxy-6H-dibenzo[b,d]pyran-6-one] | – | 153 to 155 | – | 31.7 | Ki (rat CB1 receptor): 266 ± 58 nM; selectivity for mCB2 over rCB1 (mouse CB2 receptor): 21- to 32 fold; Ki (mouse CB2 receptor; read-out: Ki mCB2): 8.4 ± 2.5 nM; greater affinity for mCB2 than for hCB2 (hCB2 receptor [2]): 3 fold; hCB2/mCB2 (hCB2 receptor [2]): 3.3; rCB1/hCB2 (hCB2 receptor [2]): 9.5; Ki (hCB2 receptor [2]): 28 ± 9.7 nM
5 | CC(C)N(C(=O)c1ccc(O)cc1-c1c(O)cc(C2(CCCCBr)CCCC2)cc1O)C(C)C [Compound 23a, 4′-[1-(4-Bromobutyl)cyclopentyl]-2′,5,6′-trihydroxy-N,N-diisopropyl-[1,1′-biphenyl]-2-carboxamide] | 702 ± 220 | 183 to 185 | 22.4 ± 4.5 | 31.3 | –
6 | N#CCCCC1(c2cc(O)c3c(c2)oc(=O)c2ccc(O)cc23)CCCC1 [Compound 3g, 3-[1-(3-Cyanopropyl)cyclopentyl]-1,9-dihydroxy-6H-dibenzo[b,d]pyran-6-one] | 290 ± 64 | 118 to 120 | 17.9 ± 5.8 | 16.2 | –
7 | O=c1oc2cc(C3(CCCBr)CCCC3)cc(O)c2c2cc(O)ccc12 [Compound 3c, 3-[1-(3-Bromopropyl)cyclopentyl]-1,9-dihydroxy-6H-dibenzo[b,d]pyran-6-one] | 405 ± 122 | – | 24.3 ± 3.9 | – | –
8 | O=c1oc2cc(C3(CCCCCBr)CCCC3)cc(O)c2c2cc(O)ccc12 [Compound 3b, 3-[1-(5-Bromopentyl)cyclopentyl]-1,9-dihydroxy-6H-dibenzo[b,d]pyran-6-one] | 370 ± 130 | – | 16.3 ± 5.2 | – | –
9 | N#CCCCCC1(c2cc(O)c3c(c2)oc(=O)c2ccc(O)cc23)CCCC1 [Compound 3e, 3-[1-(4-Cyanobutyl)cyclopentyl]-1,9-dihydroxy-6H-dibenzo[b,d]pyran-6-one] | 304 ± 73 | 138 to 140 | 11.8 ± 4.1 | 25.7 | –
10 | O=c1oc2cc(C3(CCCCBr)CCCC3)cc(O)c2c2cc(O)ccc12 [Compound 3a, 3-[1-(4-Bromobutyl)cyclopentyl]-1,9-dihydroxy-6H-dibenzo[b,d]pyran-6-one] | 390 ± 132 | 96 to 98 | 20.8 ± 5.9 | 18.8 | –
11 | CC(C)N(C(=O)c1ccc(O)cc1-c1c(O)cc(C2(CCCBr)CCCC2)cc1O)C(C)C [Compound 23c, 4′-[1-(3-Bromopropyl)cyclopentyl]-2′,5,6′-trihydroxy-N,N-diisopropyl-[1,1′-biphenyl]-2-carboxamide] | 229 ± 70 | 178 to 180 | 10.5 ± 3.5 | 21.8 | –
12 | CCCCCCC1(c2cc(O)c(-c3cc(O)ccc3C(=O)N(C(C)C)C(C)C)c(O)c2)CCCC1 [Compound 23d, 4′-(1-Hexyl-cyclopentyl)-2′,5,6′-trihydroxy-N,N-diisopropyl-[1,1′-biphenyl]-2-carboxamide] | 341 ± 100 | 185 to 187 | 5.7 ± 1.5 | 59.8 | selectivity for mCB2 over rCB1 (mouse CB2 receptor): 60 fold; response in hCB2 cAMP assay (hCB2 receptor [1]; concentrations up to 2 μM): failed to show any responses
13 | N#CCCCCCC1(c2cc(O)c3c(c2)oc(=O)c2ccc(O)cc23)CCCC1 [Compound 3f, 3-[1-(5-Cyanopentyl)cyclopentyl]-1,9-dihydroxy-6H-dibenzo[b,d]pyran-6-one] | – | – | – | – | Ki (rat CB1 receptor): 640 ± 152 nM; Ki (mouse CB2 receptor; read-out: Ki mCB2): 4.9 ± 1.2 nM; greater affinity for mCB2 than for hCB2 (hCB2 receptor [2]): 7 fold; Ki (hCB2 receptor [2]): 33.8 ± 10.4 nM; EC50 (hCB2 receptor [1]): 3.7 ± 1.5 nM; classification at hCB2 (hCB2 receptor [1]): agonist; classification at hCB2 (hCB2 receptor [1]; listed as AM4346): potent CB2 agonist; E(max) (hCB2 receptor [1]): 89%
